The record followed here is patent US20240018125A1, “CYCLIC ISOTHIOUREA DERIVATIVES AS CXCR4 MODULATORS” (ERMIUM THERAPEUTICS, priority 2020, published 2024).

The structures appear in SMILES notation. Structures can show the parent of a compound that is named as a salt.

For `C1=C(CSC2=NCc3ccccc3N2)N2Cc3cccnc3N=C2S1` (as salt: hydrochloride) [Example 28, 3-(((3,4-dihydroquinazolin-2-yl)thio)methyl)-5H-pyrido[2,3-d]thiazolo[3,2-a]pyrimidine trihydrochloride], the melting point – broadly, the temperature of the solid-liquid transition – is 180 to 190 °C. Compound `C1=C(CSC2=Nc3ccccc3C(c3ccccc3)N2)N2Cc3ccccc3CN=C2S1` (stereo not shown) (as salt: hydrochloride) [Example 27, 3-(((4-phenyl-3,4-dihydroquinazolin-2-yl)thio)methyl)-5,10-dihydrobenzo[e]thiazolo[3,2-a][1,3]diazepine dihydrochloride] showed a melting point of 203 to 210 °C. On to `CCCCN1CCN=C1SCC1=CSC2=NCc3ccccc3CN12` (as salt: hydrochloride) [Example 37, 3-(((1-butyl-4,5-dihydro-1H-imidazol-2-yl)thio)methyl)-5,10-dihydrobenzo[e]thiazolo[3,2-a][1,3]diazepine dihydrochloride], for which the melting point lay in the range of 206 to 212 °C.

In turn, `CC1(C)CN=C(SCC2=CSC3=NCc4ccccc4CN23)N1` (as salt: hydrochloride) [Example 8, 3-(((5,5-dimethyl-4,5-dihydro-1H-imidazol-2-yl)thio)methyl)-5,10-dihydrobenzo[e]thiazolo[3,2-a][1,3]diazepine dihydrochloride] gave a melting point of 244 to 247 °C. `Cc1ccc(CC2CN3C(CSC4=NCc5ccccc5N4)=CSC3=N2)cc1` (stereo not shown) (as salt: hydrochloride) [Example 122, 3-(((1,4-dihydroquinazolin-2-yl)thio)methyl)-6-(4-methylbenzyl)-5,6-dihydroimidazo[2,1-b]thiazole dihydrochloride] registered a melting point of 158 to 170 °C. `CC1(C)c2ccccc2N=C2SC=C(CSC3=NCc4ccccc4N3)N21` (as salt: hydrochloride) [Example 95, 3-(((1,4-dihydroquinazolin-2-yl)thio)methyl)-5,5-dimethyl-5H-thiazolo[2,3-b]quinazoline dihydrochloride] gave a melting point of 180 to 185 °C. In turn, `IC1=C(CSC2=NCc3ccccc3N2)N2CC(Cc3ccccc3)N=C2S1` (stereo not shown) (as salt: hydrochloride) [Example 110, 6-benzyl-3-(((1,4-dihydroquinazolin-2-yl)thio)methyl)-2-iodo-5,6-dihydroimidazo[2,1-b]thiazole dihydrochloride] displayed a melting point of 177 to 182 °C. In turn, `C1=C(CSC2=NCc3ccccc3N2)N2CC(Cc3cccs3)N=C2S1` (stereo not shown) (as salt: hydrochloride) [Example 63, 3-(((3,4-dihydroquinazolin-2-yl)thio)methyl)-6-(thiophen-2-ylmethyl)-5,6-dihydroimidazo[2,1-b]thiazole dihydrochloride] displayed a melting point of 215 to 220 °C. The compound `CCCCN1C(SCC2=CSC3=NC(Cc4ccccc4)CN23)=NCc2ccccc21` (stereo not shown) (as salt: hydrochloride) [Example 99, 6-benzyl-3-(((1-butyl-1,4-dihydroquinazolin-2-yl)thio)methyl)-5,6-dihydroimidazo[2,1-b]thiazole dihydrochloride] yielded a melting point of 50 to 58 °C. The compound `CC1(c2ccccc2)CN=C(SCC2=CSC3=NCc4ccccc4CN23)N1` (stereo not shown) (as salt: hydrochloride) [Example 30, 3-(((5-methyl-5-phenyl-4,5-dihydro-1H-imidazol-2-yl)thio)methyl)-5,10-dihydrobenzo[e]thiazolo[3,2-a][1,3]diazepine dihydrochloride] returned a melting point of 195 to 200 °C. `c1ccc2c(c1)CN=C(SCCN1CCCC1)N2` (as salt: hydrochloride) [Example 77, 2-((2-(pyrrolidin-1-yl)ethyl)thio)-1,4-dihydroquinazoline dihydrochloride] yielded a melting point of 195 to 203 °C.

`Fc1cccc2c1CN1C(CSC3=NCc4ccccc4N3)=CSC1=N2` (as salt: hydrochloride) [Example 18, 3-(((3,4-dihydroquinazolin-2-yl)thio)methyl)-6-fluoro-5H-thiazolo[2,3-b]quinazoline dihydrochloride] displayed a melting point of 193 to 203 °C. In turn, `C1=C(CSC2=NCc3ccccc3N2)N2C(=N[C@H]3CCCC[C@@H]32)S1` (relative stereo) (as salt: hydrochloride) [Example 13, trans-3-(((3,4-dihydroquinazolin-2-yl)thio)methyl)-4a,5,6,7,8,8a-hexahydrobenzo[4,5]imidazo[2,1-b]thiazole dihydrochloride] had a melting point of 240 to 244 °C. Regarding `CC1(C)CN=C(SCC2=CSC3=Nc4ccccc4CN23)N1` (as salt: hydrochloride) [Example 5, 3-(((5,5-dimethyl-4,5-dihydro-1H-imidazol-2-yl)thio)methyl)-5H-thiazolo[2,3-b]quinazoline dihydrochloride], the melting point is above 250 °C. Turning to `Fc1ccc2c(c1)NC(SCC1=CSC3=NC(Cc4ccccc4)CN13)=NC2` (stereo not shown) (as salt: hydrochloride) [Example 89, 6-benzyl-3-(((7-fluoro-1,4-dihydroquinazolin-2-yl)thio)methyl)-5,6-dihydroimidazo[2,1-b]thiazole dihydrochloride], the melting point was 125 to 130 °C. As for `C1=C(CSC2=NCCc3ccccc3N2)N2CC(Cc3ccccc3)N=C2S1` (stereo not shown) (as salt: hydrochloride) [Example 88, 6-benzyl-3-(((4,5-dihydro-1H-benzo[d][1,3]diazepin-2-yl)thio)methyl)-5,6-dihydroimidazo[2,1-b]thiazole dihydrochloride], the melting point is 50 to 53 °C.

Consider `C1=C(CSC2=NCc3ccccc3N2)N2CC(C3CCCCC3)N=C2S1` (stereo not shown) (as salt: hydrochloride) [Example 15, 6-cyclohexyl-3-(((3,4-dihydroquinazolin-2-yl)thio)methyl)-5,6-dihydroimidazo[2,1-b]thiazole dihydrochloride], for which the melting point fell in the range of 235 to 242 °C.

As for `Cc1cccc(CC2CN3C(CSC4=NCc5ccccc5N4)=CSC3=N2)c1` (stereo not shown) (as salt: hydrochloride) [Example 112, 3-(((1,4-dihydroquinazolin-2-yl)thio)methyl)-6-(3-methylbenzyl)-5,6-dihydroimidazo[2,1-b]thiazole dihydrochloride], the melting point fell in the range of 136 to 145 °C. Regarding `c1ccc2c(c1)CN=C(SCCN1[C@@H]3CCC[C@H]1CC3)N2` (as salt: hydrochloride) [Example 133, 2-((2-((1R,5S)-8-azabicyclo[3.2.1]octan-8-yl)ethyl)thio)-3,4-dihydroquinazoline dihydrochloride], the melting point is 52 to 70 °C.

`c1ccc2c(c1)CN=C(SCCCCN1CCCC1)N2` (as salt: hydrochloride) [Example 137, 2-((4-(pyrrolidin-1-yl)butyl)thio)-1,4-dihydroquinazoline dihydrochloride] came in with a melting point of 78 to 85 °C. `CN1CCN=C1SCC1=CSC2=Nc3ccccc3CN12` (as salt: hydrochloride) [Example 36, 3-(((1-methyl-4,5-dihydro-1H-imidazol-2-yl)thio)methyl)-5H-thiazolo[2,3-b]quinazoline dihydrochloride] returned a melting point of 247 to 248 °C.

`CC1CCN(CCSC2=NCc3ccccc3N2)C1` (stereo not shown) (as salt: hydrochloride) [Example 138, 2-((2-(3-methylpyrrolidin-1-yl)ethyl)thio)-1,4-dihydroquinazoline dihydrochloride]: the melting point was in the range of 178 to 182 °C.

As to `C1=C(CSC2=NCCc3ccccc3N2)N2Cc3ccccc3CN=C2S1` (as salt: hydrochloride) [Example 25, 3-(((4,5-dihydro-1H-benzo[d][1,3]diazepin-2-yl)thio)methyl)-5,10-dihydrobenzo[e]thiazolo[3,2-a][1,3]diazepine dihydrochloride], the melting point is above 250 °C. Take `C1=C(CSC2=NCc3ccccc3N2)N2CC(Cc3ccccc3)N=C2S1` (stereo not shown) (as salt: hydrochloride) [Example 65, 6-benzyl-3-(((3,4-dihydroquinazolin-2-yl)thio)methyl)-5,6-dihydroimidazo[2,1-b]thiazole dihydrochloride]: the melting point was 142 to 148 °C.

In turn, `c1ccc(C2CCCN2CCSC2=NCc3ccccc3N2)cc1` (stereo not shown) (as salt: hydrochloride) [Example 128, 2-((2-(2-phenylpyrrolidin-1-yl)ethyl)thio)-1,4-dihydroquinazoline dihydrochloride] registered a melting point of 94 to 108 °C.

In turn, `CC1(C)N=C(SCC2=CSC3=NC(Cc4ccccc4)CN23)Nc2ccccc21` (stereo not shown) (as salt: hydrochloride) [Example 87, 6-benzyl-3-(((4,4-dimethyl-1,4-dihydroquinazolin-2-yl)thio)methyl)-5,6-dihydroimidazo[2,1-b]thiazole dihydrochloride] registered a melting point of 50 to 52 °C. Then `C1=C(CSC2=NCc3ccccc3N2)N2Cc3ccccc3CN=C2S1` (as salt: hydrochloride) [Example 11, 3-(((3,4-dihydroquinazolin-2-yl)thio)methyl)-5,10-dihydrobenzo[e]thiazolo[3,2-a][1,3]diazepine dihydrochloride], with 189 to 193 °C; and `Cl.c1ccc2c(c1)CN=C(SCc1csc3nc4ccccc4n13)N2` [Example 96], with above 250 °C; and `Fc1ccc2c(c1)CN1C(CSC3=NCc4ccccc4N3)=CSC1=N2` (as salt: hydrochloride) [Example 84, 3-(((1,4-dihydroquinazolin-2-yl)thio)methyl)-7-fluoro-5H-thiazolo[2,3-b]quinazoline dihydrochloride], with above 250 °C.

`OC1(CSC2=NCc3ccccc3N2)CSC2=N[C@H](c3ccccc3)[C@@H](c3ccccc3)N21` (relative stereo) (as salt: hydrochloride) [Example 17, trans-3-(((3,4-dihydroquinazolin-2-yl)thio)methyl)-5,6-diphenyl-2,3,5,6-tetrahydroimidazo[2,1-b]thiazol-3-ol dihydrochloride] had a melting point of 195 to 200 °C. `CC1(c2ccccc2)CN2C(CSC3=NCc4ccccc4N3)=CSC2=N1` (stereo not shown) (as salt: hydrochloride) [Example 38, 3-(((3,4-dihydroquinazolin-2-yl)thio)methyl)-6-methyl-6-phenyl-5,6-dihydroimidazo[2,1-b]thiazole dihydrochloride] had a melting point of 230 to 235 °C.
